These results are taken from ChEMBL document CHEMBL1130086, “Potent HIV protease inhibitors containing a novel (hydroxyethyl)amide isostere” (J Med Chem, 1997).

The EC50 is the concentration giving half of the maximal effect. Read a low EC50 as an effect from little substance. In general, IC50 refers to the midpoint of a concentration-inhibition curve. As usually defined, the Ki is a dissociation constant, usually derived from enzyme kinetics or from competition with a known ligand.

For test [1], the system named is Human immunodeficiency virus 1. As to the kind of experiment: Inhibitory concentration against HIV-1 strain 111B in acutely infected C8166 T cells. The format is functional, organism-based. The note with it: Human immunodeficiency virus 1, C8166.
The target in test [2] is T1, Human immunodeficiency virus type 1 protease (Human immunodeficiency virus 1, UniProt Q72874). As to the kind of experiment: Inhibitory concentration against recombinant HIV-1 111B protease expressed from Escherichia coli was tested by HPLC based assay.
Test [3] concerns the target T1, Human immunodeficiency virus type 1 protease. Nature of the test: binding affinity against HIV-1 111B strain in protease.
The subject of test [4] is C8166. Nature of the test: Inhibitory concentration against HIV-2 rod strain in acutely infected C8166 T cells. The format is functional, cell-based. The note with it: Homo sapiens.
Test [5] has as its target T1, Human immunodeficiency virus type 1 protease. Nature of the test: Inhibitory concentration against recombinant HIV-1 protease expressed in Escherichia coli was tested by HPLC based assay.
Test [6] has the same target. Nature of the test: binding affinity against HIV-1 protease.

`CC(C)[C@H](NC(=O)c1ccc2ccccc2n1)C(=O)N[C@@H](Cc1ccccc1)[C@H](O)CN1CC[C@@H](OCc2ccncc2)C[C@H]1C(=O)NC(C)(C)C`: the EC50 in test [1] came out at 5 nM; in test [4], 25 nM. The IC50 in test [2] was determined as 4 nM. The Ki in test [3] was found to be 0.031 nM.

In the case of `CCC(CC)NC(=O)C[C@@H](C(=O)NC[C@@H](O)[C@H](Cc1ccccc1)NC(=O)[C@@H](NC(=O)c1cnc2ccccc2n1)[C@H](C)O)C(C)(C)C`, the IC50 in test [5] came out at 3 nM. Moreover, the EC50 in test [1] was found to be 13 nM.

On to `CCC(CC)NC(=O)C[C@@H](C(=O)NC[C@@H](O)[C@H](Cc1ccccc1)NC(=O)[C@@H](NC(=O)c1ccc2ccccc2n1)[C@H](C)O)C(C)(C)C`, for which the IC50 in test [5] came out at 3.6 nM. A half-maximal response in test [1] (EC50) required 7 nM.

Turning to `CCC(CC)NC(=O)C[C@@H](C(=O)NC[C@@H](O)[C@H](Cc1ccccc1)NC(=O)[C@@H](NC(=O)OCc1ccccc1)[C@H](C)O)C(C)(C)C`, in test [5], the half-maximal inhibitory concentration (IC50) was determined as 8.2 nM. The same compound gave an EC50 in test [1] of 165 nM.

In the case of `CC(C)[C@H](NC(=O)OCc1ccccc1)C(=O)N[C@@H](Cc1ccccc1)[C@H](O)CN1CCCC[C@H]1C(=O)NC(C)(C)C`, the IC50 in test [5] worked out at 62 nM.

With `CC(C)[C@H](NC(=O)OCc1ccccc1)C(=O)N[C@@H](Cc1ccccc1)[C@H](O)CNC(=O)C[C@H](C(=O)NC(C)(C)C)C(C)(C)C`, the IC50 in test [5] came out at 4850 nM.

In the case of `CCC(CC)NC(=O)C[C@@H](C(=O)NC[C@@H](O)[C@H](Cc1ccccc1)NC(=O)[C@@H](NC(=O)c1ccc2ccccc2n1)C(C)C)C(C)(C)C`, the IC50 in test [5] came out at 2.5 nM. The compound further yielded an EC50 in test [1] of 3.7 nM. The affinity in test [6], expressed as Ki, was 0.0075 nM.

On to `CC(C)[C@H](NC(=O)OCc1ccccc1)C(=O)N[C@@H](Cc1ccccc1)[C@H](O)CNC(=O)[C@@H](CC(=O)NC(C)(C)C)C(C)(C)C`, for which, in test [5], the IC50 turned out to be 25 nM.

Regarding `CC(C)(C)[C@@H](CC(=O)Nc1ccccc1)C(=O)NC[C@@H](O)[C@H](Cc1ccccc1)NC(=O)OCc1ccccc1`, the IC50 in test [5] came out at 14 nM.

With `CC(C)[C@H](NC(=O)OCc1ccccc1)C(=O)N[C@@H](Cc1ccccc1)[C@H](O)CNC(=O)C1CCCC[C@H]1C(=O)NC(C)(C)C` (some centres undefined), the IC50 in test [5] stood at 140 nM.

With `CC(C)(C)[C@@H](CC(=O)NC1CCCCC1)C(=O)NC[C@@H](O)[C@H](Cc1ccccc1)NC(=O)OCc1ccccc1`, the IC50 in test [5] is 135 nM.

Consider `CCC(CC)NC(=O)C[C@@H](C(=O)NC[C@@H](O)[C@H](Cc1ccccc1)NC(=O)[C@H](CC(N)=O)NC(=O)c1ccc2ccccc2n1)C(C)(C)C`, for which the IC50 in test [5] was 2.2 nM. The EC50 in test [1] came out at 11 nM.

Regarding `CCC(CC)NC(=O)C[C@@H](C(=O)NC[C@@H](O)[C@H](Cc1ccccc1)NC(=O)[C@@H](NC(=O)c1cnc2ccccc2n1)C(C)C)C(C)(C)C`, the IC50 in test [5] is 2.2 nM. In test [1], this compound yielded an EC50 of 5.8 nM.

With `CC(C)[C@H](NC(=O)OCc1ccccc1)C(=O)N[C@@H](Cc1ccccc1)[C@H](O)CNC(=O)CCC(=O)NC(C)(C)C`, the IC50 in test [5] amounted to 8250 nM.

`CCCC(CCC)NC(=O)C[C@@H](C(=O)NC[C@@H](O)[C@H](Cc1ccccc1)NC(=O)OCc1ccccc1)C(C)(C)C`: the IC50 in test [5] amounted to 39 nM.

With `CC(C)[C@H](NC(=O)OCc1ccccc1)C(=O)N[C@@H](Cc1ccccc1)[C@H](O)CNC(=O)[C@H](CC(=O)NC(C)(C)C)C(C)(C)C`, the concentration for half-maximal inhibition (IC50) in test [5] is 3 nM. Also, the EC50 in test [1] amounted to 15 nM.

As to `CCC(CC)NC(=O)C[C@@H](C(=O)NC[C@@H](O)[C@H](Cc1ccccc1)NC(=O)[C@@H](NC(=O)OCc1ccccc1)C(C)C)C(C)(C)C`, the IC50 in test [5] was found to be 2.9 nM. The same compound gave an EC50 in test [1] of 9.3 nM.

Consider `CCC(CC)NC(=O)C[C@@H](C(=O)NC[C@@H](O)[C@H](Cc1ccccc1)NC(=O)OCc1ccccc1)C(C)(C)C`, for which the IC50 in test [5] is 15 nM.

Take `CC(C)[C@H](NC(=O)OCc1ccccc1)C(=O)N[C@@H](Cc1ccccc1)[C@H](O)CNC(=O)C[C@@H](C(=O)NC(C)(C)C)C(C)(C)C`: the IC50 in test [5] amounted to 125 nM.

Regarding `CC(C)(C)NC(=O)C[C@@H](C(=O)NC[C@@H](O)[C@H](Cc1ccccc1)NC(=O)OCc1ccccc1)C(C)(C)C`, the IC50 in test [5] amounted to 19 nM.

As for `CCC(CC)NC(=O)C[C@@H](C(=O)NC[C@@H](O)[C@H](Cc1ccccc1)NC(=O)[C@H](CC(N)=O)NC(=O)OCc1ccccc1)C(C)(C)C`, the IC50 in test [5] came out at 3.8 nM. The EC50 in test [1] stood at 127 nM.

Take `CC(C)[C@H](NC(=O)OCc1ccccc1)C(=O)N[C@@H](Cc1ccccc1)[C@@H](O)CNC(=O)[C@H](CC(=O)NC(C)(C)C)C(C)(C)C`: in test [5], the IC50 amounted to 50 nM.

`CCC(CC)NC(=O)C[C@@H](C(=O)NC[C@@H](O)[C@H](Cc1ccccc1)NC(=O)[C@H](CC(N)=O)NC(=O)c1cnc2ccccc2n1)C(C)(C)C`: in test [5], the IC50 turned out to be 1.9 nM. The EC50 in test [1] was 35 nM.

With `CC(C)C(NC(=O)C[C@@H](C(=O)NC[C@@H](O)[C@H](Cc1ccccc1)NC(=O)OCc1ccccc1)C(C)(C)C)C(C)C`, the IC50 in test [5] worked out at 58 nM.

Consider `CC(C)NC(=O)C[C@@H](C(=O)NC[C@@H](O)[C@H](Cc1ccccc1)NC(=O)OCc1ccccc1)C(C)(C)C`, for which the IC50 in test [5] amounted to 19 nM.
